Reference: article PMC10115881, “Disrupting the α-synuclein-ESCRT interaction with a peptide inhibitor mitigates neurodegeneration in preclinical models of Parkinson’s disease” (Nature Communications, 2023)

Assays:
[1] = system: endolysosomal flux in HEK293 cells; experiment: Endolysosomal flux assay, flow cytometry, HEK293 cells; format: cell-based, human; settings: A53T a-syn
Method: Flux via the endolysosomal pathway was measured with the Lysosome Intracellular Activity Assay Kit which was purchased from Abcam (ab234622) and used according to the manufacturer’s instructions. The kit provides a proprietary lysosome-specific self-quenched substrate which has low background fluorescence, high signal-to-background ratio, and is pH insensitive. In the assay, the substrate is taken up by cells and acts as endocytic cargo which is degraded within an endolysosomal vesicle. Following degradation, the fluorescence signal recovered from the substrate is proportional to the intracellular lysosomal activity. The activity can be measured by fluorescence microscopy or FACS. The assay was performed with HEK293T cells or SNCA triplication fibroblasts (obtained from NINDS Human Genetics Resource Center DNA and Cell Line Repository; NINDS Repository sample number ND27760). Cells were maintained in DMEM supplemented with 10% FBS and 1% pen/strep/glutamine. Cell medium was replaced with fresh medium containing DMSO, Leupeptin, or Bafilomycin A1 and incubated for 1 h at 37 °C with 5% CO2. Self-quenched substrate was added into each condition and incubated for 1 h (HEK293T cells) or overnight (SNCA triplication fibroblasts) at 37 °C with 5% CO2. […] For HEK293T cells, cells were resuspended in PBS containing DMSO or Leupeptin and analyzed by FACS. […]

[2] = system: a-syn oligomers in iPSC-derived dopaminergic neurons; experiment: a-syn oligomer (Syn-O2) fluorescence in iPSC-derived dopaminergic neurons; format: cell-based, human; settings: A53T a-syn iPSC-derived dopaminergic neurons
From the text: Further, we used an antibody that has a high binding affinity for oligomeric a-syn and recognizes early soluble oligomers and late fibrils of a-syn (Syn-O2)[54]. This antibody detects these a-syn conformations in cerebrospinal fluid[55] and brain tissue[54] from PD patients. Levels of these a-syn conformations were increased in A53T a-syn neurons (Fig. 6G, H). Further, LAMP1 levels were reduced in A53T a-syn neurons (Fig. 6D, F).
A53T a-syn iCell Dopa neurons (catalog #R1109) and isogenic control iCell Dopa neurons (catalog #R1088) were purchased from Fujifilm Cellular Dynamics (Madison, WI, USA) and cultured as per the manufacturer’s instructions. […]
Confocal images of immunofluorescent staining were acquired with a Zeiss LSM880 confocal microscope equipped with 405, 488, 555, and 639 nm laser lines. All images were taken within the linear range at constant gain and pinhole settings at optimal resolution settings determined by the software. […]
Confocal images of primary cortical neurons, iPSC-derived dopaminergic neurons, and LAMP1 staining within the SN were processed using Imaris software (Oxford instruments). […] Mean pixel intensity per GFP^+ cell (for experiments using GFP-tagged peptides) or RFP^+ cell (for experiments using RFP-tagged peptides) was calculated for a-syn or LAMP1 signal using the software’s surfaces module. […]

DEEIERQLKALG [PDpep1.3]
Effect on endolysosomal flux [1]: returned the fluorescent signal to baseline
Effect on oligomeric a-syn, iPSC neurons [2]: returned levels of a-syn, including oligomeric a-syn, as well as LAMP1 levels to those of isogenic controls
